According to patent US6444454B1, “Method for increasing the gene expression of saccharose synthase” (Forschungszentrum Julich GmbH, priority 1997, dated 2002):

Tests used:
Format in all cases: biochemical
Saccharose Synthase [1] = biological target: T1, Saccharose Synthase (Solanum tuberosum, UniProt P10691); experiment: acceptance of different NDP's in saccharose splitting; settings: NDP 1.6 mM, saccharose 500 mM, 0.035 U enzyme, pH 7.6, 30° C.
T1 construct: made in house; host or cells: Saccharomyces cerevisiae strain 22574d, plasmid pDRSuSy (pDR195, proton-ATPase promoter)
T1 sequence (P10691 whole entry): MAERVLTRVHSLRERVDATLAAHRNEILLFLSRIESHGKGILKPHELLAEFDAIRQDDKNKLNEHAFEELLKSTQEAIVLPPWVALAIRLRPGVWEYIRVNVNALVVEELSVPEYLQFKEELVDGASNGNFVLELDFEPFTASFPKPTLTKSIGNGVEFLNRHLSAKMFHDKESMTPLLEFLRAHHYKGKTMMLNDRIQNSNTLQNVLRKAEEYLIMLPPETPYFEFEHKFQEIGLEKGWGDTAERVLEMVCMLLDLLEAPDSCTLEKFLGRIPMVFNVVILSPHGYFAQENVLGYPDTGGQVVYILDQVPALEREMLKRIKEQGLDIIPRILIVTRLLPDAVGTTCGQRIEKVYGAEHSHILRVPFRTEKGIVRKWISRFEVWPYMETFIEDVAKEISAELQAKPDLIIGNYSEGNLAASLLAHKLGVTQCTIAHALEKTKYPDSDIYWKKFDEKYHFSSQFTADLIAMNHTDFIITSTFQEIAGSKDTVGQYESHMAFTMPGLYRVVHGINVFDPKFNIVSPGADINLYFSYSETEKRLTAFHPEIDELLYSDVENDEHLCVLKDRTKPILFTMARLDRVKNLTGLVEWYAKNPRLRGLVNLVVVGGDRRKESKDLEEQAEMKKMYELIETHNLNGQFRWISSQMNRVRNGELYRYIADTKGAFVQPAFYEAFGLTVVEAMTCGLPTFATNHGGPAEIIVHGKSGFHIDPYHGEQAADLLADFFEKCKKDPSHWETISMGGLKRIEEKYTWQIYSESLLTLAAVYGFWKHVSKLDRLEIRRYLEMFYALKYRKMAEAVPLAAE
Method: Initially the acceptance of the recombinant saccharose synthase for different NDP's in saccharose splitting was investigated. The reaction conditions was as follows: [table] The reactions with different NDP's were carried out at a temperature of 30° C.

Saccharose Synthase [2] = biological target: T1, Saccharose Synthase; experiment: Michaelis-Menten-Kinetics of saccharose splitting with UDP; settings: UDP 1.6 mM, 14 mU enzyme, pH 7.6, 30° C., 10 minutes
Method: In addition, the Michaelis-Menten-Kinetics of the saccharose splitting with the recombinant saccharose synthase with UDP as a function of saccharose was determined.
The reaction condition for this were as follows:
The reactions were carried out at a temperature of 30° C.; the reaction time amounted in each case to 10 minutes.
In FIG. 5, the Michaelis-Menten-Kinetics of saccharose synthase as a function of saccharose concentration is shown. […] The concentrations of more than 600 mM saccharose substrate excess limiting sets in.

Saccharose Synthase [3] = biological target: T1, Saccharose Synthase; experiment: splitting of disaccharides with UDP; settings: disaccharide 250 mM, UDP 2 mM, 24 hours at 30° C.
Method: For the synthase of UDP-2-Desoxyglucose and UDP-N-Acetylglucoseamine, the following reaction composition is used. [table] The reaction mixture is incubated for 24 hours at 30° C. and the reaction stopped at 95° over a period of 5 minutes.

acceptance of NDP's in saccharose splitting as a function of reaction time (sequence) (Saccharose Synthase [1]) | Compound | further results
UDP>ADP=TDP>CDP>GDP | O=c1ccn([C@@H]2O[C@H](COP(=O)(O)OP(=O)(O)O)[C@@H](O)[C@H]2O)c(=O)[nH]1 [UDP] | 
UDP>ADP=TDP>CDP>GDP | Nc1ncnc2c1ncn2[C@@H]1O[C@H](COP(=O)(O)OP(=O)(O)O)[C@@H](O)[C@H]1O [ADP] | 
UDP>ADP=TDP>CDP>GDP | Nc1ccn([C@@H]2O[C@H](COP(=O)(O)OP(=O)(O)O)[C@@H](O)[C@H]2O)c(=O)n1 [CDP] | 
 | OC[C@H]1O[C@@](CO)(O[C@H]2O[C@H](CO)[C@@H](O)[C@H](O)[C@H]2O)[C@@H](O)[C@@H]1O [saccharose] | Km (Saccharose Synthase [2]): 66 mM; saccharose concentration at which substrate excess limiting sets in (Saccharose Synthase [2]): more than 600 mM
 | OC[C@H]1OC(CO)(O[C@@H]2C[C@@H](O)[C@H](O)[C@@H](CO)O2)[C@@H](O)[C@@H]1O (stereo partly drawn) [two desoxy saccharose, 2-desoxysaccharose] | disaccharide split off (Saccharose Synthase [3]; 0.11 U saccharose synthase): 5.9%
UDP>ADP=TDP>CDP>GDP | Nc1nc2c(ncn2[C@@H]2O[C@H](COP(=O)(O)OP(=O)(O)O)[C@@H](O)[C@H]2O)c(=O)[nH]1 [GDP] | 
 | N-acetyl saccharosamine | disaccharide converted (Saccharose Synthase [3]; 1.25 U of the enzyme): 12.4%
UDP>ADP=TDP>CDP>GDP | Cc1cn([C@H]2C[C@H](O)[C@@H](COP(=O)(O)OP(=O)(O)O)O2)c(=O)[nH]c1=O [TDP] | 
